{"source": "PubChem BioAssay AID1996", "data": [{"settings": "buffer; pH 7.4; 200.0 µM", "units": {"solubility kinetic": "µg/mL"}, "values": [{"compound": "c1ccc(Oc2nc(-c3cccnc3)nc3ccccc23)cc1", "solubility kinetic": 0.7}, {"compound": "CCOC(=O)c1c(N=CN(C)C)c2cc([N+](=O)[O-])cnc2n1C", "solubility kinetic": 35}, {"compound": "O=C(COC(=O)CCC(=O)N1CCOCC1)Nc1ccc(Br)cc1Br", "solubility kinetic": "> 71.7"}, {"compound": "O=C(CN1CCCCC1)n1c2ccccc2c2ccccc21", "solubility kinetic": 24.3}, {"compound": "CCOC(=O)c1c(C)n(C(C)C)c2ccc(OC)cc12", "solubility kinetic": 15.1}, {"compound": "O=C(Nc1cccnc1)c1cccc(S(=O)(=O)N2CCCCC2)c1", "solubility kinetic": "> 51.8"}, {"compound": "Cc1ccc(CN2CCN(C3CCCC3)C(CCO)C2)s1", "note": "(stereo not drawn)", "solubility kinetic": 43.7}, {"compound": "COc1ccccc1C(=O)NCCNC(=O)c1ccc(C)nc1", "solubility kinetic": 45.7}, {"compound": "COc1ccc(C)cc1NC(=O)C1CCN(S(C)(=O)=O)CC1", "solubility kinetic": "> 49"}, {"compound": "Cc1nc(N)ncc1Sc1ccccc1", "solubility kinetic": 5.2}, {"compound": "CCC(CO)NCC#Cc1ccccc1.Cl", "note": "(stereo not drawn)", "solubility kinetic": "> 36"}, {"compound": "O=C(NCCc1ccccc1)c1cccc(Br)c1", "solubility kinetic": 10}, {"compound": "c1ccc(N2CCOCCOCCOCCOCC2)cc1", "solubility kinetic": "> 44.3"}, {"compound": "O=C(NCc1ccccc1)c1ccc(Cl)cc1", "solubility kinetic": 3.8}, {"compound": "Cc1ccc(S(=O)(=O)N(C)C)cc1NC(=O)CCc1ccccc1", "solubility kinetic": 49.9}, {"compound": "CCOC(=O)c1cc(C#N)c(SCC(=O)O)[nH]c1=O", "solubility kinetic": 38.8}, {"compound": "CC(C)N(CCn1cnc2c([nH]c3ccccc32)c1=O)C(C)C", "solubility kinetic": 24.5}, {"compound": "CCOC(=O)Cc1csc(NC(=O)Nc2ccc(Cl)cc2)n1", "solubility kinetic": 1.3}, {"compound": "CCc1nc(C)cc2c1sc1ccccc12.Cl", "solubility kinetic": 1}, {"compound": "CCS(=O)(=O)c1ncc(CO)n1CCc1ccccc1", "solubility kinetic": "> 44.2"}, {"compound": "COc1ccc(CC(=O)OCC(=O)NC2CCCCC2)cc1", "solubility kinetic": "> 45.8"}, {"compound": "CN(C)CCNC(=O)c1sc2cccc(F)c2c1Cl", "solubility kinetic": 40.1}, {"compound": "CC1Cc2ccccc2N1C(=O)Cn1cnc2ccccc21", "note": "(stereo not drawn)", "solubility kinetic": 42.3}, {"compound": "Cc1cccc(NC(=O)c2ccc(N3C(=O)C4CCCCC4C3=O)cc2)c1C", "note": "(stereo not drawn)", "solubility kinetic": 20.6}, {"compound": "COc1ccc([N+](=O)[O-])cc1NC(=O)C(C)OC(=O)C1CCCC1", "note": "(stereo not drawn)", "solubility kinetic": 12}, {"compound": "CCOc1cc(C(F)(F)F)cnc1/C(N)=N/O", "solubility kinetic": 36.9}, {"compound": "Cc1[nH]c2ccccc2c1/C=C(\\C#N)C(=O)NC1CC1", "solubility kinetic": 6.8}, {"compound": "O=C(COc1cccnc1[N+](=O)[O-])Nc1cccc(Br)c1", "solubility kinetic": 2.7}, {"compound": "Cc1cc(=S)nc(-c2ccccn2)[nH]1", "solubility kinetic": 28.6}, {"compound": "CC(OC(=O)c1cc2sccc2n1C)C(=O)NC(C)(C)C", "note": "(stereo not drawn)", "solubility kinetic": "> 46.3"}, {"compound": "O=[n+]1cc(-c2ccc(Cl)cc2)n([O-])c2c1CCC2", "solubility kinetic": "> 39.4"}, {"compound": "O=C(COC(=O)c1cncc(Br)c1)NCc1cccs1", "solubility kinetic": 40.6}, {"compound": "Cc1cnc(C(=O)Oc2cccc(Cl)c2Cl)cn1", "solubility kinetic": 35.4}, {"compound": "O=C(COC(=O)CNC(=O)c1ccccc1Cl)NC1CCCC1", "solubility kinetic": "> 50.8"}, {"compound": "COc1ccc(S(=O)(=O)N2CCOCC2)cc1NC(=O)COC(=O)Cc1ccccc1", "solubility kinetic": 51.7}, {"compound": "Cc1ccc(NC(=O)CNC(=O)c2ccco2)cc1", "solubility kinetic": "> 38.7"}, {"compound": "Cc1ccc(CNC(=O)CSc2nc3ccccc3[nH]2)cc1", "solubility kinetic": 31.1}, {"compound": "COC(=O)c1scc(C)c1S(=O)(=O)Nc1ccc(C)cc1", "solubility kinetic": 6.5}, {"compound": "CC(=O)Oc1ccc(/C=C/c2nc3ccccc3c(=O)o2)cc1", "solubility kinetic": "< 0.7"}, {"compound": "Cc1ccc(CNCc2ccc3c(c2)OCO3)cc1", "solubility kinetic": 32.5}, {"compound": "Cc1ccc(C(=O)N2CCN(c3ncccn3)CC2)cc1", "solubility kinetic": "> 42.4"}, {"compound": "Nc1nc(Nc2ccccc2F)nc(NC2CCCCC2)c1[N+](=O)[O-]", "solubility kinetic": "< 0.1"}, {"compound": "CC(C)(C)c1ccc(-c2noc(CCC(=O)Nc3cccnc3)n2)cc1", "solubility kinetic": 3.1}, {"compound": "CCCCNC(=O)NS(=O)(=O)c1ccc(C)cc1", "solubility kinetic": "> 40.6"}, {"compound": "O=C(COC(=O)c1ccc([N+](=O)[O-])o1)NC1CCCc2ccccc21", "note": "(stereo not drawn)", "solubility kinetic": 26.3}, {"compound": "COc1cc(C(=O)N2CCN(c3ccccn3)CC2)cc(OC)c1OC", "solubility kinetic": "> 53.6"}, {"compound": "CC1=CCC2C(=O)N(c3ccc(S(N)(=O)=O)cc3)C(=O)C2C1", "note": "(stereo not drawn)", "solubility kinetic": "> 48.1"}, {"compound": "CCOCCN(C(=O)c1ccccc1Cl)c1cccc(C)c1C", "solubility kinetic": "> 49.8"}, {"compound": "C=CCNC(=O)COc1ccc(Oc2ccccc2)cc1", "solubility kinetic": "> 42.5"}, {"compound": "COc1ccc(Nc2ncc(F)c(N3CCOCC3)n2)cc1", "solubility kinetic": 3.8}, {"compound": "CCOC(=O)N1CCN(Cc2nc(-c3cccs3)no2)CC1", "solubility kinetic": 44}, {"compound": "Cc1cc2nc(-c3ccc[nH]c3=O)[nH]c2cc1C", "solubility kinetic": 3.3}, {"compound": "COc1cccc(NC(=O)C2COc3ccccc3O2)c1", "note": "(stereo not drawn)", "solubility kinetic": "> 42.8"}, {"compound": "CC(=O)Nc1ccc(C(=O)NCC2CCCCC2)cc1", "solubility kinetic": 36.4}, {"compound": "COc1ccc(CN2CN(C3CCCC3)CSC2=S)cc1", "solubility kinetic": 0.8}, {"compound": "O=C(/C=C/c1c(F)cccc1Cl)NCCCN1CCOCC1", "solubility kinetic": "> 49"}, {"compound": "CC1Cc2ccccc2N1C(=O)COc1ccc2c(c1)OCO2", "note": "(stereo not drawn)", "solubility kinetic": 43.1}, {"compound": "COc1ccccc1NC(=O)/C(C#N)=C/c1ccncc1", "solubility kinetic": 36}, {"compound": "CC1CCCC(NC(=O)c2ccc(COc3ccccc3)o2)C1C", "note": "(stereo not drawn)", "solubility kinetic": 2.2}, {"compound": "Cc1ccc(O)c(NC(=O)c2cc(-c3ccccc3Cl)on2)c1", "solubility kinetic": 0.4}, {"compound": "Cc1cc(Br)ccc1NC(=S)N1CCOCC1", "solubility kinetic": "> 47.3"}, {"compound": "CC(=O)c1c[nH]c(C(=O)NC2CCCCCC2)c1", "solubility kinetic": 34.9}, {"compound": "COc1cccc(C(=O)OCC(=O)NCCC2=CCCCC2)c1", "solubility kinetic": 25.8}, {"compound": "Cc1ccccc1NC(=S)N1CCN(c2ccccc2C)CC1", "solubility kinetic": 0.6}, {"compound": "CCC(CC)NC(=O)c1cccc(Br)c1", "solubility kinetic": 38.1}, {"compound": "FC(F)(F)c1ccccc1-c1nc(-c2ccncc2)no1", "solubility kinetic": 7.6}, {"compound": "CC(=O)NC(c1ccc(Cl)cc1Cl)c1ccc2cccnc2c1O", "note": "(stereo not drawn)", "solubility kinetic": 3}, {"compound": "CCOC(=O)CNC(=S)N(Cc1ccccc1)Cc1ccccc1F", "solubility kinetic": 11.7}, {"compound": "CC(C)Cn1c(N)c(C=O)c(=O)n(C)c1=O", "solubility kinetic": "> 33.8"}, {"compound": "CCCc1cnc(N2CCN(C(=S)NC)CC2)nc1", "solubility kinetic": 38.7}, {"compound": "NC(=O)COC(=O)c1c2c(nc3ccccc13)CCCCC2", "solubility kinetic": "> 44.8"}, {"compound": "C=CCn1c(=S)sc2c(=O)[nH]c(C)nc21", "solubility kinetic": "> 35.9"}, {"compound": "O=C1NC(=S)N(c2ccccc2)C(=O)/C1=C/c1ccco1", "solubility kinetic": 43}, {"compound": "Cc1csc2c(=O)n(CCO)c(=O)[nH]c12", "solubility kinetic": "> 33.9"}, {"compound": "COC(=O)CC1NCCc2cc(OC)c(OC)cc21", "note": "(stereo not drawn)", "solubility kinetic": "> 39.8"}, {"compound": "CC(CCc1ccccc1)NS(=O)(=O)c1ccccc1F", "note": "(stereo not drawn)", "solubility kinetic": 39}, {"compound": "CCC(C)n1c(O)c(C=NCCN2CCOCC2)c(=O)[nH]c1=S", "note": "(stereo not drawn)", "solubility kinetic": "> 51.1"}, {"compound": "O=C(NC1CCCCC1)C1CCCN1C(=O)Nc1ccccc1", "note": "(stereo not drawn)", "solubility kinetic": "> 47.3"}, {"compound": "CCOc1ccc(Nc2cc(C)nc3c(C)cccc23)cc1", "solubility kinetic": 24.5}, {"compound": "COc1ccc(S(=O)(=O)N2CCOCC2)cc1NC(=O)COc1ccc2ccc(=O)oc2c1", "solubility kinetic": 6}, {"compound": "O=C(COC(=O)c1ccco1)Nc1ccc2[nH]c(=O)[nH]c2c1", "solubility kinetic": 9.3}, {"compound": "O=C(NC1=NCCS1)c1cc(Cl)ccc1Cl", "solubility kinetic": 37.1}, {"compound": "COC(=O)c1cc(NC(=O)c2cccnc2)ccc1N1CCOCC1", "solubility kinetic": "> 51.2"}, {"compound": "CC1CCCCC1NC(=O)COC(=O)COc1ccccc1F", "note": "(stereo not drawn)", "solubility kinetic": 35.3}, {"compound": "Cc1ccc(C(=O)Nc2ccncc2)c(C)c1", "solubility kinetic": "> 33.9"}, {"compound": "COc1ccc(C(CC(=O)NCc2ccccc2)C(C)C)cc1", "note": "(stereo not drawn)", "solubility kinetic": 10.1}, {"compound": "Cc1ccc(S(=O)(=O)NC(=O)Nc2ccccc2)cc1", "solubility kinetic": 41.8}, {"compound": "O=c1ccnc(SCCc2ccc([N+](=O)[O-])cc2)[nH]1", "solubility kinetic": 21.6}]}]}
